{"source": "patent US11413285B2", "about": "“PDE III inhibitors for treatment of asymptomatic heart failure” (priority 2004, dated 2022)", "key": {"dogs with DCM": {"test_system": "dogs with DCM", "details": "dogs with DCM in the LIVE study; cited from earlier work"}, "[1]": {"test_system": "dogs suffering of occult dilated cardiomyopathy", "test": "Study in dogs with occult dilated cardiomyopathy (ISACHC class I)", "type": "in vivo, dog", "from_the_text": "A study is done with pimobendan ([…]®) in dogs suffering of occult dilated cardiomyopathy. Inclusion criteria were dogs which are diagnosed to have a congestive heart failure of class I according to the […]-score due to dilated cardiomyopathy (DCM). Dogs having a having an asymptomatic (occult) heart failure, e.g. asymptomatic DCM must have reduced contractility of the heart or other signs of reduced cardiac efficacy such as volume overload or ventricle dilatation as confirmed by echocardiography. The dogs stay under mono-therapy until signs of congestive heart failure are developing, deteriorate to heart insufficiency score ([…]) class II or III a or b. After confirmation of the congestion by X-ray-radiography the dogs receive furosemid treatment or if the clinical or echocardiographic results makes the addition of another heart failure treatment necessary (primary endpoint). The dogs will be investigated at day 0 prior to first treatment and then approximately 3 month post initiation of the therapy. […] An Echo is performed prior to initiation of therapy (Day 0) and at the following visits to support the clinical diagnosis and to evaluate the effect of the drugs on the contractility of the heart. The echocardiography is performed according to the cardiologic case report form for Irish Wolfhounds. The primary parameter investigated will be the heart insufficiency score ([…]). […]"}, "[2]": {"test_system": "Cocker spaniels and Dobermanns with DCM", "details": "for mean survival time / survival time, range: in addition to digoxin, enalapril, furosemide", "from_the_text": "A double-blind study has been carried out in order to evaluate the long-term efficacy and tolerance to pimobendan and its effect on long-term survival in cocker spaniels and Dobermanns with DCM.\nMaterials and Methods: Cocker spaniels (n=10) and Dobermanns (n=10) presenting to the Cardiopulmonary Service of the R(D)SVS with DCM were recruited for the study with owners' consent. After stabilization on conventional therapy with digoxin, enalapril, and furosemide, dogs received in addition either pimobendan (Vetmedin®) or placebo using a double-blind study design."}, "[3]": {"test_system": "dogs with clinically overt heart failure due to valve insufficiency", "test": "Double-blind randomized positive controlled multi-centre field trial, pimobendan versus benazepril", "type": "in vivo, dog", "details": "for dogs that died or were euthanised due to cardiac reasons: 56-days study period, 41 dogs pimobendan group, 35 dogs benazepril group; for ISACHC classification Ib (Score=2), no clinical symptoms, share of cases / overall efficacy rated as very good or good, share of cases: Day 56; for ISACHC heart failure classification improved, share of cases: after the 56 day treatment period; for median survival time: long-term survival data", "experimental": "A double-blind randomized positive controlled multi-centre field trial has been carried out in order to evaluate the clinical efficacy of pimobendan treatment at a daily dose of 0.4-0.6 mg/kg in comparison to an angiotensin-converting-enzyme (ACE) inhibitor treatment with benazepril hydrochloride at a daily dose of approximately 0.25-0.5 mg/kg body weight. Both treatments could be combined with furosemide (up to 8 mg/kg per day) or anti-arrhythmic drugs as appropriate. The study was conducted at 11 centers in Europe by experienced veterinary cardiologists under the rules of Good Clinical Practice (GCP). Mandatory minimum duration of treatment was 56 days for each patient. Dogs were examined on Day 0 prior to first treatment and on Day 7 and 56 after initiation of therapy. In order to obtain long-term survival data, the investigator had the option to continue therapy after Day 56. In the optional study period treatment code for the animal was decoded, as it was not allowed to add pimobendan to the benazepril group, in order to maintain an appropriate […] control group. All other licensed concomitant therapies were allowed. For survival analysis, animals that dropped out or changed treatment due to therapy failure were also rated as dead. However, these cases were statistically evaluated as censored data.\nPrimary parameter for conclusion on efficacy was the clinical severity of heart failure symptoms, classified according to the recommendations of the International Small Animal Cardiac Health Council (ISACHC). Secondary parameters were exercise tolerance, demeanor, findings of the respiratory and circulatory system, overall efficacy rating, as well as, echocardiography data.\nOverall 76 dogs, 41 dogs in the pimobendan group and 35 dogs in the benazepril group were included. […] Mean duration of symptoms prior to inclusion was 4.05 months in the pimobendan and 2.77 months in the benazepril group. There were no clinically relevant differences between the groups prior to initiation of therapy in any of the parameters investigated.\nThe radiographs have been made in a left to right lateral view. For the determination of cardiac size a vertebral scale system was used.\nIn the lateral radiographs, the long axis of the heart (L) was measured with a caliper extending from the ventral aspect of the left main stem bronchus (tracheal bifurcation hilus, carina) to the most distant contour of the left ventricular apex. The caliper was repositioned along the vertebral column beginning at the cranial edge of the 4th thoracic vertebra. The length of the heart was recorded as the number of vertebrae caudal of that point and estimated to the nearest 0.1 of a vertebra. The maximum perpendicular short axis (S) was measured in the same manner beginning at the 4th thoracic vertebra.\nThe length in vertebrae (v) of the long and short axes were then added to obtain a vertebral heart sum (VHS) which provided a single number representing heart size proportionate to the size of the dog. The normal range of VHS in healthy dogs is 8.5 v to 10.5 v (mean of 9.7 v)."}, "[4]": {"test_system": "human patients with heart failure", "details": "long-term oral use; cited from earlier work"}, "[5]": {"details": "Visit 1 (Day 0, prior to first treatment)"}}, "note": "Where a name gives a salt, the structure may show the parent alone. Read-outs that look alike come from different tables or passages of the source.", "data": [{"smiles": "CCOC(=O)[C@H](CCc1ccccc1)N[C@@H](C)C(=O)N1CCC[C@H]1C(=O)O", "note": "[enalapril]", "values": [{"measurement": "time to treatment failure", "setting": "dogs with DCM", "value": 142.8, "unit": "days"}]}, {"smiles": "COc1ccc(-c2nc3ccc(C4=NNC(=O)CC4C)cc3[nH]2)cc1", "note": "(stereo not drawn) [pimobendan, 4,5-dihydro-6-[2-(4-methoxyphenyl)-1H-benzimidazol-5-yl]-5-methyl-3(2H)-p-yridazone]", "values": [{"measurement": "Left Ventricular Reverse Remodeling (LVRR), share of treated dogs", "setting": "[1]; dogs with asymptomatic DCM", "value": "~80", "unit": "%"}, {"measurement": "dogs that went into the state of clinical symptoms (Class II)", "setting": "[1]; interim analysis after 4 years, mono-therapy", "value": "significantly less dogs"}, {"measurement": "mean survival time", "setting": "[2]; Dobermanns with DCM", "value": 280, "unit": "days"}, {"measurement": "survival time, range", "setting": "[2]; Dobermanns with DCM", "value": "42 to 369", "unit": "days"}, {"measurement": "NYHA-class status of the patient", "setting": "[2]; both breeds, addition to standard treatment regimen", "value": "significant improvement"}, {"measurement": "mean survival time", "setting": "[2]; cocker spaniels with DCM", "value": 612, "unit": "days"}, {"measurement": "survival time, range", "setting": "[2]; cocker spaniels with DCM", "value": "61 to 1428", "unit": "days"}, {"measurement": "tolerance / treatment-related adverse effects", "setting": "[2]; dog, in vivo", "value": "well tolerated and no treatment-related adverse effects were noted"}, {"measurement": "dogs that died or were euthanised due to cardiac reasons", "setting": "[3]", "value": 2, "unit": "dogs"}, {"measurement": "ISACHC classification Ib (Score=2), no clinical symptoms, share of cases", "setting": "[3]", "value": 76, "unit": "%"}, {"measurement": "overall efficacy rated as very good or good, share of cases", "setting": "[3]", "value": 85, "unit": "%"}, {"measurement": "vertebral heart sum, Max.", "setting": "[3]; [5]", "value": 14.5, "unit": "v"}, {"measurement": "vertebral heart sum, Mean", "setting": "[3]; [5]", "value": 11.83, "unit": "v"}, {"measurement": "vertebral heart sum, Median", "setting": "[3]; [5]", "value": 11.60, "unit": "v"}, {"measurement": "vertebral heart sum, Min.", "setting": "[3]; [5]", "value": 9, "unit": "v"}, {"measurement": "vertebral heart sum, Max.", "setting": "[3]; Visit 3 (Day 56)", "value": 14.1, "unit": "v"}, {"measurement": "vertebral heart sum, Mean", "setting": "[3]; Visit 3 (Day 56)", "value": 11.71, "unit": "v"}, {"measurement": "vertebral heart sum, Median", "setting": "[3]; Visit 3 (Day 56)", "value": 11.60, "unit": "v"}, {"measurement": "vertebral heart sum, Min.", "setting": "[3]; Visit 3 (Day 56)", "value": 9.0, "unit": "v"}, {"measurement": "change in mean heart size (vertebral heart sum), Mean", "setting": "[3]; Visit 3-1 (Day 56 minus Day 0)", "value": "−0.15", "unit": "v"}, {"measurement": "vertebral heart sum, change from baseline, Max.", "setting": "[3]; Visit 3-1 (Day 56 minus Day 0)", "value": 0.8, "unit": "v"}, {"measurement": "vertebral heart sum, change from baseline, Median", "setting": "[3]; Visit 3-1 (Day 56 minus Day 0)", "value": 0.00, "unit": "v"}, {"measurement": "vertebral heart sum, change from baseline, Min.", "setting": "[3]; Visit 3-1 (Day 56 minus Day 0)", "value": "−1.9", "unit": "v"}, {"measurement": "ISACHC heart failure classification improved, share of cases", "setting": "[3]", "value": 84, "unit": "%"}, {"measurement": "median survival time", "setting": "[3]", "value": 430, "unit": "days"}, {"measurement": "effects on survival", "setting": "[4]", "value": "without significantly adverse effects on survival"}, {"measurement": "exercise tolerance and quality of life", "setting": "[4]", "value": "improvement in exercise tolerance and quality of life"}]}, {"smiles": "CCOC(=O)[C@H](CCc1ccccc1)N[C@H]1CCc2ccccc2N(CC(=O)O)C1=O", "note": "[benazepril, benazepril hydrochloride]", "values": [{"measurement": "dogs that died or were euthanised due to cardiac reasons", "setting": "[3]", "value": 7, "unit": "dogs"}, {"measurement": "ISACHC classification Ib (Score=2), no clinical symptoms, share of cases", "setting": "[3]", "value": 48, "unit": "%"}, {"measurement": "overall efficacy rated as very good or good, share of cases", "setting": "[3]", "value": 41, "unit": "%"}, {"measurement": "ISACHC heart failure classification improved, share of cases", "setting": "[3]", "value": 56, "unit": "%"}, {"measurement": "median survival time", "setting": "[3]", "value": 228, "unit": "days"}]}]}
